Results reported in the supplement of paper PMC13380429.
± gives the standard deviation of the averaged measurements.

Legend:
Conditions in all cases: 72 h
U2OS [1] = assay: cell viability relative to DMSO; higher = less toxic
HepG2 [2] = assay: as above
Vero E6 [3] = assay: as above
Caco-2 [4] = assay: as above
Calu-3 [5] = assay: as above
U2OS [6] = assay: relative viability EC50 (midpoint between 100% and the lowest measured viability); higher = less toxic
HepG2 [7] = assay: as above
Vero E6 [8] = assay: as above
Caco-2 [9] = assay: as above
Calu-3 [10] = assay: as above
U2OS [11] = assay: drug sensitivity score (DSS) for viability; higher = more toxic; extreme values may be limits of the assay
HepG2 [12] = assay: as above
Vero E6 [13] = assay: as above
Caco-2 [14] = assay: as above
Calu-3 [15] = assay: as above

SMILES	cell viability (U2OS [1]; 1 nM)	cell viability (U2OS [1]; 10 nM)	cell viability (U2OS [1]; 100 nM)	cell viability (U2OS [1]; 1000 nM)	cell viability (U2OS [1]; 10000 nM)	cell viability (HepG2 [2]; 1 nM)	cell viability (HepG2 [2]; 10 nM)	cell viability (HepG2 [2]; 100 nM)	cell viability (HepG2 [2]; 1000 nM)	cell viability (HepG2 [2]; 10000 nM)	cell viability (Vero E6 [3]; 1 nM)	cell viability (Vero E6 [3]; 10 nM)	cell viability (Vero E6 [3]; 100 nM)	cell viability (Vero E6 [3]; 1000 nM)	cell viability (Vero E6 [3]; 10000 nM)	cell viability (Caco-2 [4]; 1 nM)	cell viability (Caco-2 [4]; 10 nM)	cell viability (Caco-2 [4]; 100 nM)	cell viability (Caco-2 [4]; 1000 nM)	cell viability (Caco-2 [4]; 10000 nM)	cell viability (Calu-3 [5]; 1 nM)	cell viability (Calu-3 [5]; 10 nM)	cell viability (Calu-3 [5]; 100 nM)	cell viability (Calu-3 [5]; 1000 nM)	cell viability (Calu-3 [5]; 10000 nM)	relative viability EC50 (U2OS [6])	relative viability EC50 (HepG2 [7])	relative viability EC50 (Vero E6 [8])	relative viability EC50 (Caco-2 [9])	relative viability EC50 (Calu-3 [10])	drug sensitivity score (U2OS [11])	drug sensitivity score (HepG2 [12])	drug sensitivity score (Vero E6 [13])	drug sensitivity score (Caco-2 [14])	drug sensitivity score (Calu-3 [15])
COc1ccc([C@@H]2CC(=O)c3c(O)cc(O[C@@H]4O[C@H](CO)[C@@H](O)[C@H](O)[C@H]4O[C@@H]4O[C@@H](C)[C@H](O)[C@@H](O)[C@H]4O)cc3O2)cc1O [neohesperidin]	96.7%	98.8%	97.2%	96%	108%	102%	97.8%	103%	99.3%	101%	98.2%	92.8%	93.6%	95.9%	104%	94.5%	99.5%	99.4%	90.1%	99.3%	102%	91.1%	95.7%	101%	102%	> 10 µM	> 10 µM	> 10 µM	> 10 µM	> 10 µM	0	0	0	0	0
O=C(Nc1ccccc1)Nc1ccc(-c2ccc(C(=O)[C@@H]3CCC[C@@H]3C(=O)O)cc2)cc1	98.5 ± 1.5%	98.6 ± 5.8%	100 ± 1.3%	101 ± 2%	94.2 ± 2.1%	105.2 ± 0.49%	96.4 ± 1.4%	95.5 ± 10%	92.2 ± 7%	97.1 ± 7.3%	101 ± 3.9%	98.7 ± 1.1%	98.45 ± 0.35%	94.3 ± 2.8%	95.1 ± 0.57%	99.05 ± 0.78%	95.8 ± 1.6%	94.35 ± 0.35%	97 ± 13%	85.6 ± 0.28%	111 ± 3%	103.8 ± 0.85%	97.2 ± 1.4%	98.2 ± 5.6%	108 ± 1.9%	> 10 µM	> 10 µM	> 10 µM	> 10 µM	> 10 µM	0	0.35 ± 0.49	0	0.4 ± 0.42	0
C=CC(=O)Nc1cc(Nc2nccc(-c3c[nH]c4ccccc34)n2)c(OC)cc1N(C)CCN(C)C [AZ5104]	104%	95.2%	95.4%	59.6%	8.6%	98.2%	94.2%	84.2%	64%	9.2%	88.8%	93.8%	61.6%	49.7%	0.2%	89.1%	87.6%	81.7%	62.1%	24.3%	82.8%	56.2%	32.5%	33.3%	17.4%	1.13 µM	1.19 µM	0.397 µM	0.563 µM	0.0093 µM	9.8	9.3	15.6	10.3	27.9
CC(C)C[C@H](NC(=O)[C@H](CCCCN)NC(=O)[C@H](CCCNC(=N)N)NC(=O)[C@H](C)NC(=O)[C@H](CO)NC(=O)[C@H](CCCCN)NC(=O)[C@H](CCCNC(=N)N)NC(=O)[C@H](C)NC(=O)CNC(=O)[C@@H](NC(=O)[C@H](Cc1ccccc1)NC(=O)CNC(=O)CNC(=O)[C@@H](N)Cc1ccccc1)[C@@H](C)O)C(=O)N[C@@H](C)C(=O)N[C@@H](CC(N)=O)C(=O)N[C@@H](CCC(N)=O)C(=O)O [orphanin-fq]	98.1%	93.3%	97.7%	97.5%	96.1%	94.3%	97.4%	94.5%	98.7%	106%	92.2%	99.7%	95.3%	97.1%	98.6%	90.9%	93.6%	104%	106%	96.5%	104%	107%	101%	112%	96.8%	> 10 µM	> 10 µM	> 10 µM	> 10 µM	> 10 µM	0	0	0	0	0
CCCCCCCCC(=O)N[C@H](CN1CCCC1)[C@H](O)c1ccc2c(c1)OCCO2	101%	102%	105%	98.5%	102%	96.8%	105%	105%	106%	104%	91.9%	97.2%	87.7%	90.4%	95.4%	101%	94.9%	102%	111%	98.9%	109%	94.9%	92.2%	92%	94.8%	> 10 µM	> 10 µM	> 10 µM	> 10 µM	> 10 µM	0	0	0	0	0
N[C@@H](C(=O)N[C@@H]1C(=O)N2C(C(=O)O)=C(Cl)CS[C@H]12)c1ccccc1 [cefaclor]	101%	103%	99.3%	98%	98.2%	96.4%	102%	100%	104%	98.5%	97%	98.3%	101%	95.8%	94.7%	94.7%	98%	88.9%	97.1%	92.6%	97.1%	99%	102%	102%	98.5%	> 10 µM	> 10 µM	> 10 µM	> 10 µM	> 10 µM	0	0	0	0	0
CCN(CC)Cc1nccn1-c1ccc([N+](=O)[O-])cc1C(=O)c1ccccc1Cl [nizofenone]	105%	102%	97.1%	102%	98.7%	100%	96%	98.4%	95.7%	95.5%	102%	100%	104%	102%	92.9%	124%	92.8%	81.8%	108%	81.1%	93.3%	105%	98.8%	105%	99.5%	> 10 µM	> 10 µM	> 10 µM	> 10 µM	> 10 µM	0	0	0	0.3	0
